Where “and” joins values, the source holds several entries; their conditions need not be identical. Equal values may be shown once.
What follows are compounds tested against SARS-CoV-2 Main Protease (SARS-CoV-2) (UniProt P0DTD1).

SMILES | IC50
Cc1nc2ccc(NS(=O)(=O)c3cccc4nonc34)cc2o1 | > 99500 nM
O=C(NCCc1cccc(F)c1)C(c1cccnc1)N(C(=O)c1cnc[nH]1)c1ccc(OC2CCOC2)cc1 (centres undefined) | 25800 nM
O=C(Nc1cncc2c1CCCC2)C1CNS(=O)(=O)c2ccc(Cl)cc21 (centres undefined) | 452 nM
CC(C(=O)Nc1cncnc1)c1ccccc1 (centres undefined) | > 99500 nM
Cn1cc(C(C(=O)NCCc2cccc(F)c2)N(C(=O)c2cocn2)c2ccc(C(C)(C)C)cc2)ccc1=O (centres undefined) | > 99500 nM
O=C(NCCc1cccc(F)c1)C(c1cccnc1)N(Cc1ccccc1)C(=O)c1cnc[nH]1 (centres undefined) | > 99000 nM
CC1(C(=O)Nc2cncc3ccccc23)CNC(=O)c2ccc(Cl)cc21 (centres undefined) | 876 nM
C[C@@H]1C[C@H](C(=O)Nc2cncc3ccccc23)c2cc(Cl)ccc2O1 (stereo in doubt) | 679 nM
O=C(Nc1nncn1C1CC1)C1CCOc2ccc(Cl)cc21 (centres undefined) | 513 nM and 696 nM
CSCCCNC(=O)C(c1cccnc1)N(C(=O)c1cocn1)c1ccc(C(C)(C)C)cc1 (centres undefined) | 3850 nM
CC(NC(=O)CCl)c1cc(F)cc(Cl)c1 (centres undefined) | 27900 nM
O=C(NCCOc1ccccc1)c1cc(=O)[nH]c2ccccc12 | > 99500 nM
O=C(NCc1ccccc1)[C@@H]1CN(C(=O)CCl)CCN1S(=O)(=O)c1ccsc1 (stereo in doubt) | 501 nM
CC(C)(C)c1ccc(N(C(=O)c2cccc(C#N)c2)C(C(=O)NCCc2cccc(F)c2)c2cccnc2)cc1 (centres undefined) | > 99500 nM
O=C1NCC(C(=O)Nc2cncc3ccccc23)c2cc(F)cc(F)c21 (centres undefined) | 1730 nM
CCOC(=O)Cn1cc(C(=O)N(c2ccc(C(C)(C)C)cc2)C(C(=O)NCCc2cccc(F)c2)c2cccnc2)nn1 (centres undefined) | 44000 nM
CNC(=O)CN1CC(C)(C(=O)Nc2cncc3cc(F)ccc23)c2cc(Cl)ccc2S1(=O)=O (centres undefined) | 248 nM
O=C(Cc1cccc(Cl)c1)Nc1noc2ncccc12 | > 99500 nM
O=C(NCCc1cccc(F)c1)C(c1cccnc1)N(C(=O)c1cocn1)C1Cc2ccccc21 (centres undefined) | > 99500 nM
Cc1cc(C(=O)N2CCC(C3CCNC3)CC2)cc(S(=O)(=O)N(C)C)c1C (centres undefined) | > 99500 nM
CCOC(=O)c1cc(-c2ccccc2)sc1NC(=O)Cc1csc(-c2ccccc2)n1 | 4660 nM
Cc1nc(Cl)c(Nc2cc(Cl)cc(CC(=O)Nc3cncc4ccccc34)c2)c(Cl)n1 | 1640 nM
CC1(C(=O)Nc2cncc3ccc(F)cc23)CNS(=O)(=O)c2ccc(Cl)cc21 (centres undefined) | 441 nM
CNC1CCc2c(NC(=O)C3CCOc4ccc(Cl)cc43)cncc21 (centres undefined) | > 99500 nM
O=C(Cc1cccc(Cl)c1)Nc1noc2ccccc12 | > 99500 nM

SMILES | IC50
COC(=O)c1cc(/C=c2\s/c(=C(/C#N)C(=O)NC(C)C)n(-c3ccc(OC)c(F)c3)c2=O)oc1C | > 99500 nM
CC(C)N1CCCC(N2CCN(c3ccc4nccnc4n3)CC2)C1=O (centres undefined) | > 99500 nM
O=C(Nc1cncc2ccccc12)C1CN(S(=O)(=O)CC2CC2)Cc2ccc(Cl)cc21 (centres undefined) | 168 nM
CC(C)(C)c1ccc(N(C(=O)c2cnc[nH]2)C(C(=O)NCCc2cccc(F)c2)c2cc(=O)[nH]c3ccccc23)cc1 (centres undefined) | 1310 nM
CN(C)C(=O)C(CNC(=O)[C@@H](c1ccccc1)N1Cc2ccccc2C1=O)c1ccccc1 (stereo in doubt) | > 99500 nM
O=C(NCCc1cccc(F)c1)C(c1cccnc1)N(C(=O)c1cocn1)c1ccc(Cn2cccn2)cc1 (centres undefined) | 8340 nM
C=CC(=O)N(c1ccc(C(C)(C)C)cc1)[C@H](C(=O)NCCc1cccc(F)c1)c1cccnc1 (stereo in doubt) | 2860 nM
Cn1cncc1CN(C(=O)CC1(C(=O)Nc2cncc3ccccc23)CCOc2ccc(Cl)cc21)C1CC1 (centres undefined) | 6100 nM
COc1cc2nc(Cl)nc(Nc3cc(Cl)cc(CC(=O)Nc4cncc5ccccc45)c3)c2cc1OC | 2360 nM
CCOC(=O)/C=C/N1CCN(S(=O)(=O)c2ccccc2)CC1 | 30000 nM
CN1Cc2c(Cl)cc(Cl)cc2[C@H](c2cccc(S(=O)(=O)NCCOCCOCCNC(=O)NCCCCNC(=O)NCCOCCOCCNS(=O)(=O)c3cccc([C@@H]4CN(C)Cc5c(Cl)cc(Cl)cc54)c3)c2)C1 (stereo in doubt) | > 99000 nM
O=C(Cc1cc(Cl)cc(OC2CC(=O)N2)c1)Nc1cncc2ccccc12 (centres undefined) | 274 nM and 150 nM
COc1ccc(N(C(=O)c2cocn2)C(C(=O)NCCc2cccc(F)c2)c2cccnc2)cc1 (centres undefined) | 22200 nM
O=C(Cn1nnc2ccccc21)N(Cc1ccccn1)c1ccc(-n2cnnc2)cc1 | > 99500 nM
COc1ccc(-c2ccccc2S(=O)(=O)N2CCN(C(=O)CCl)CC2)cc1 | 551 nM
O=C1N(c2cncc3ccccc23)CCC12CN(S(=O)(=O)N1CCC1)Cc1ccc(Cl)cc12 (centres undefined) | 330 nM
O=C(NC1N=Nc2ccccc21)C1CCOc2ccc(Cl)cc21 (centres undefined) | > 99500 nM
COC(=O)[C@@H]1CC[C@H](NC(=O)C(c2cccnc2)N(C(=O)c2cocn2)c2ccc(C(C)(C)C)cc2)C1 (stereo in doubt) | 2380 nM
Cc1ccc(N(Cc2cscn2)C(=O)Cc2cncc3ccccc23)nc1 | > 99500 nM
CC(C)c1cccc(C(C)C)c1Nc1cc(Cl)cc(CC(=O)Nc2cncc3ccccc23)c1 | 1820 nM
O=C(COCC(=O)N1CCCC1)NC(C(=O)Nc1cncc2ccccc12)c1cccc(Cl)c1 (centres undefined) | 6350 nM and 8470 nM
CC(C)(C)OC(=O)[C@H]1CCCN1c1cc(Cl)cc(CC(=O)Nc2cncc3ccccc23)c1 (stereo in doubt) | 2520 nM
O=C(Cc1cc(Cl)cc(Nc2ccc(Oc3ccc(Cl)cc3)cc2)c1)Nc1cncc2ccccc12 | 2440 nM
Cc1nnn(-c2ccc(N(C(=O)c3cocn3)C(C(=O)NCCc3cccc(F)c3)c3cccnc3)cc2)n1 (centres undefined) | 33200 nM
